The results in this text go back to article PMC12189828, “Substitution of Proline Residues by 4-Fluoro-L-Proline Affects the Mechanism of the Proline-Rich Antimicrobial Peptide Api137” (Antibiotics, 2025).

Where a SMILES comes first, the peptide text is derived from it. [ ]: non-standard residue; d: D form. The star is where a group is joined. Orn(α-tetramethylguanidino) = CN(C)C(=N[C@@H](CCCN)C(=O)*)N(C)C; Pro(trans-4-F) = O=C(O)[C@@H]1C[C@@H](F)CN1; Pro(cis-4-F) = O=C(O)[C@@H]1C[C@H](F)CN1

Test [1] deals with in vitro expression of sfGFP in the presence of RF1. In words: In vitro transcription-translation (iTT) assay of sfGFP in the presence of RF1. In kind it is biochemical. The following applies: peptide 5 µmol/L, RF1, 37 °C, 2 h, fluorescence, normalized to absence of PrAMPs, n = 3. As for the experimental part: The sfGFP expression analysis relied on the NEB PureExpress Delta RF123 Kit (New England Biolabs, Frankfurt, Germany). The DNA template encoding sfGFP with a UAG stop codon was amplified from the pY71sfGFP vector by PCR using the primers sfGFP fwd ([…]) and sfGFP rev ([…]). The release factor RF1 of the kit was diluted 50-fold (v/v) in 1× Pure System Buffer (PSB, 1 mol/L magnesium acetate, 0.5 mol/L K3PO4 (pH 7.3), 1 mol/L potassium glutamate, 1 mol/L NH4Cl, 0.5 mol/L CaCl2, 1 mol/L spermidine, 0.1 mol/L putrescine, 0.1 mol/L DTT). sfGFP expression was performed in a freshly prepared mixture of kit solution A (2 µL), kit solution B (1.5 µL), 50-fold diluted RF1 (0.5 µL), sfGFP template (0.1325 pmol, 35 ng) or water as control (0.25 µL), PSB (0.25 µL), and a PrAMP (50 or 0 µmol/L) dissolved in water (0.5 µL). The reaction mixture was transferred to a black 384-well plate (flat bottom, PS, 784900, Greiner Bio-One GmbH), covered with a lid, and incubated (37 °C, 2 h) in a microplate reader (Gemini EM, Molecular Devices, San Jose, CA, USA). Fluorescence was recorded every 10 min (λex = 485 nm, λem = 535 nm).

Test [2] deals with 50S subunit assembly / 70S ribosome in E. coli RN31. Kind of test: Ribosome profile analysis (RPA), sucrose gradient of E. coli RN31 lysate. The format is cell-based, Escherichia coli. The following applies: 90 min; for RPA [pre-50S formation]: E. coli RN31, 33% TSB, peptide 8 µg/mL, 5–25% sucrose gradient, n = 2 (Api137 n = 7). As for the experimental part: E. coli RN31 was grown in 33% TSB (37 °C, 200 rpm) from a starting OD600 of 0.05 to an OD600 of 0.2, measured on a NanoPhotometer® (NP80; Implen; Westlake Village, CA, USA), and divided into subcultures that were inoculated with a peptide ([…]) before being cultured for 90 min (37 °C, 200 rpm). The following steps were performed on ice. Cells were harvested by centrifugation (4000× g, 4 °C, 25 min), washed with TICO buffer (20 mmol/L Hepes-KOH, pH 7.6, 6 mmol/L MgAc2, 30 mmol/L KAc), centrifuged (4000× g, 25 min, 4 °C), and stored at −80 °C. The cell pellet was suspended in TICO buffer (500 µL) and mixed with silica beads (zirconium glass pellets, 100 µm diameter; Carl Roth; Karlsruhe, Germany) to lyse the cells on a FastPrep-24^TM 5G (MP Biomedicals, Solon, OH, USA) using three disruption cycles (30 s, 6.0 m/s) interrupted by 1 min of incubation on ice after each cycle. Cell debris was removed by centrifugation (5000× g, 4 °C, 5 min), the supernatant was transferred to a new reaction tube, centrifuged (20,000× g, 4 °C, 20 min), the absorbance was recorded at 260 nm on a NanoPhotometer® NP80, and the sample was stored at −80 °C.
A 5% (w/v) sucrose solution (6.5 mL) in TICO buffer containing 2-mercaptoethanol (4 mmol/L) was poured into an open-top centrifuge tube (13.2 mL, 14 × 89 mm, Beckman Coulter) and bottomed with a 25% (w/v) sucrose solution (6.5 mL) in TICO buffer containing 2-mercaptoethanol (4 mmol/L) using a cannula. The tube was sealed with parafilm and placed horizontally at 4 °C for 3 h and vertically at 4 °C for 30 min. A portion of the upper layer (550 µL) was replaced by lysate (500 µL, A260 = 30) and centrifuged using a swing-out rotor (SW 41 Ti, 52,500× g, 4 °C, 19 h) without a brake. The contents were transferred from bottom-up to obtain equal volumes in all wells of a black 96-well plate with a flat bottom (96 Well PP black Greiner Bio-One GmbH, Frickenhausen, Germany) using the Äkta Purifier 10 system, and absorbance was recorded at a wavelength of 254 nm. Fluorescence was measured in the plate using the PARADIGM at excitation (λex) and emission (λem) wavelengths of 485 nm and 535 nm for eGFP and 585 nm and 635 nm, respectively, for mCherry and normalized to the 70S ribosome peak (set to 100%).

The subject of test [3] is E. coli RN31. In words: Growth inhibition of E. coli RN31 during 90 min exponential growth phase. In kind it is cell-based, Escherichia coli. The following applies: E. coli RN31, 33% TSB, peptide 8 µg/mL, 90 min, OD600; two biological replicates (n = 2). The procedure: The following steps were performed on ice. Cells were harvested by centrifugation (4000× g, 4 °C, 25 min), washed with TICO buffer (20 mmol/L Hepes-KOH, pH 7.6, 6 mmol/L MgAc2, 30 mmol/L KAc), centrifuged (4000× g, 25 min, 4 °C), and stored at −80 °C. The cell pellet was suspended in TICO buffer (500 µL) and mixed with silica beads (zirconium glass pellets, 100 µm diameter; Carl Roth; Karlsruhe, Germany) to lyse the cells on a FastPrep-24^TM 5G (MP Biomedicals, Solon, OH, USA) using three disruption cycles (30 s, 6.0 m/s) interrupted by 1 min of incubation on ice after each cycle. Cell debris was removed by centrifugation (5000× g, 4 °C, 5 min), the supernatant was transferred to a new reaction tube, centrifuged (20,000× g, 4 °C, 20 min), the absorbance was recorded at 260 nm on a NanoPhotometer® NP80, and the sample was stored at −80 °C. […]

`CC[C@H](C)[C@H](NC(=O)[C@H](Cc1ccc(O)cc1)NC(=O)[C@@H](NC(=O)[C@@H]1C[C@H](F)CN1C(=O)[C@H](CCCNC(=N)N)NC(=O)[C@H](CC(N)=O)NC(=O)[C@H](CC(N)=O)NC(=O)[C@H](CCCN)N=C(N(C)C)N(C)C)C(C)C)C(=O)N1CCC[C@H]1C(=O)N[C@@H](CCCNC(=N)N)C(=O)N1CCC[C@H]1C(=O)N[C@@H](CCCNC(=N)N)C(=O)N1CCC[C@H]1C(=O)N1CCC[C@H]1C(=O)N[C@@H](Cc1c[nH]cn1)C(=O)N1CCC[C@H]1C(=O)N[C@@H](CCCNC(=N)N)C(=O)N[C@@H](CC(C)C)C(=O)O` [Api839] ({Orn(α-tetramethylguanidino)}-NNR[Pro(cis-4-F)]VYIPRPRPPHPRL-OH): in test [1], the “Residual iTT (sfGFP expression relative to no PrAMP)” value came to 23 ± 0.2%. Moreover, the “RPA [pre-50S formation]” value in test [2] is recorded as “yes”.
In the case of `CC[C@H](C)[C@H](NC(=O)[C@H](Cc1ccc(O)cc1)NC(=O)[C@@H](NC(=O)[C@@H]1C[C@@H](F)CN1C(=O)[C@H](CCCNC(=N)N)NC(=O)[C@H](CC(N)=O)NC(=O)[C@H](CC(N)=O)NC(=O)[C@H](CCCN)N=C(N(C)C)N(C)C)C(C)C)C(=O)N1CCC[C@H]1C(=O)N[C@@H](CCCNC(=N)N)C(=O)N1CCC[C@H]1C(=O)N[C@@H](CCCNC(=N)N)C(=O)N1CCC[C@H]1C(=O)N1CCC[C@H]1C(=O)N[C@@H](Cc1c[nH]cn1)C(=O)N1CCC[C@H]1C(=O)N[C@@H](CCCNC(=N)N)C(=O)N[C@@H](CC(C)C)C(=O)O` [Api840] ({Orn(α-tetramethylguanidino)}-NNR[Pro(trans-4-F)]VYIPRPRPPHPRL-OH), the “Residual iTT (sfGFP expression relative to no PrAMP)” value in test [1] came to 35 ± 0.1%. Further, the “RPA [pre-50S formation]” value in test [2] is on record as “yes”.
`CC[C@H](C)[C@H](NC(=O)[C@H](Cc1ccc(O)cc1)NC(=O)[C@@H](NC(=O)[C@@H]1CCCN1C(=O)[C@H](CCCNC(=N)N)NC(=O)[C@H](CC(N)=O)NC(=O)[C@H](CC(N)=O)NC(=O)[C@H](CCCN)N=C(N(C)C)N(C)C)C(C)C)C(=O)N1CCC[C@H]1C(=O)N[C@@H](CCCNC(=N)N)C(=O)N1C[C@@H](F)C[C@H]1C(=O)N[C@@H](CCCNC(=N)N)C(=O)N1CCC[C@H]1C(=O)N1CCC[C@H]1C(=O)N[C@@H](Cc1c[nH]cn1)C(=O)N1CCC[C@H]1C(=O)N[C@@H](CCCNC(=N)N)C(=O)N[C@@H](CC(C)C)C(=O)O` [Api841] ({Orn(α-tetramethylguanidino)}-NNRPVYIPR[Pro(cis-4-F)]RPPHPRL-OH): the “reduction of bacterial growth vs untreated control” value in test [3] stood at 65%. Besides, the “Residual iTT (sfGFP expression relative to no PrAMP)” value in test [1] was 32 ± 0.9%. In addition, the “RPA [pre-50S formation]” value in test [2] is “yes”.
In the case of `CC[C@H](C)[C@H](NC(=O)[C@H](Cc1ccc(O)cc1)NC(=O)[C@@H](NC(=O)[C@@H]1CCCN1C(=O)[C@H](CCCNC(=N)N)NC(=O)[C@H](CC(N)=O)NC(=O)[C@H](CC(N)=O)NC(=O)[C@H](CCCN)N=C(N(C)C)N(C)C)C(C)C)C(=O)N1CCC[C@H]1C(=O)N[C@@H](CCCNC(=N)N)C(=O)N1C[C@H](F)C[C@H]1C(=O)N[C@@H](CCCNC(=N)N)C(=O)N1CCC[C@H]1C(=O)N1CCC[C@H]1C(=O)N[C@@H](Cc1c[nH]cn1)C(=O)N1CCC[C@H]1C(=O)N[C@@H](CCCNC(=N)N)C(=O)N[C@@H](CC(C)C)C(=O)O` [Api842] ({Orn(α-tetramethylguanidino)}-NNRPVYIPR[Pro(trans-4-F)]RPPHPRL-OH), in test [3], the “reduction of bacterial growth vs untreated control” value was found to be 49%. Moreover, the “Residual iTT (sfGFP expression relative to no PrAMP)” value in test [1] is on record as 31 ± 0.7%. In test [2], the “RPA [pre-50S formation]” value is recorded as “reduced”.
Regarding `CC[C@H](C)[C@H](NC(=O)[C@H](Cc1ccc(O)cc1)NC(=O)[C@@H](NC(=O)[C@@H]1CCCN1C(=O)[C@H](CCCNC(=N)N)NC(=O)[C@H](CC(N)=O)NC(=O)[C@H](CC(N)=O)NC(=O)[C@H](CCCN)N=C(N(C)C)N(C)C)C(C)C)C(=O)N1CCC[C@H]1C(=O)N[C@@H](CCCNC(=N)N)C(=O)N1CCC[C@H]1C(=O)N[C@@H](CCCNC(=N)N)C(=O)N1CCC[C@H]1C(=O)N1C[C@@H](F)C[C@H]1C(=O)N[C@@H](Cc1c[nH]cn1)C(=O)N1CCC[C@H]1C(=O)N[C@@H](CCCNC(=N)N)C(=O)N[C@@H](CC(C)C)C(=O)O` [Api847] ({Orn(α-tetramethylguanidino)}-NNRPVYIPRPRP[Pro(cis-4-F)]HPRL-OH), the “Residual iTT (sfGFP expression relative to no PrAMP)” value in test [1] (listed as 4S-Fpr14) was 21%; in test [1] (listed as Pro14 4S-Fpr (cis)), 21 ± 0.2%. Further, in test [2], the “RPA [pre-50S formation]” value is given as “reduced”. In addition, the “ribosomal profile, pre-50S peak” value in test [2] (E. coli RN31, adjusted peptide concentration 16 µg/mL) is recorded as “a pre-50S peak was observed”.
In the case of `CC[C@H](C)[C@H](NC(=O)[C@H](Cc1ccc(O)cc1)NC(=O)[C@@H](NC(=O)[C@@H]1CCCN1C(=O)[C@H](CCCNC(=N)N)NC(=O)[C@H](CC(N)=O)NC(=O)[C@H](CC(N)=O)NC(=O)[C@H](CCCN)N=C(N(C)C)N(C)C)C(C)C)C(=O)N1CCC[C@H]1C(=O)N[C@@H](CCCNC(=N)N)C(=O)N1CCC[C@H]1C(=O)N[C@@H](CCCNC(=N)N)C(=O)N1CCC[C@H]1C(=O)N1C[C@H](F)C[C@H]1C(=O)N[C@@H](Cc1c[nH]cn1)C(=O)N1CCC[C@H]1C(=O)N[C@@H](CCCNC(=N)N)C(=O)N[C@@H](CC(C)C)C(=O)O` [Api848] ({Orn(α-tetramethylguanidino)}-NNRPVYIPRPRP[Pro(trans-4-F)]HPRL-OH), the “Residual iTT (sfGFP expression relative to no PrAMP)” value in test [1] (listed as 4R-Fpr14) came to 64%; in test [1] (listed as Pro14 4R-Fpr (trans)), 64 ± 4.6%. Also, the “RPA [pre-50S formation]” value in test [2] is recorded as “no”.
